Source: article PMC12027992, “New Amidino-Substituted Benzimidazole Derivatives as Human Dipeptidyl Peptidase III Inhibitors: Synthesis, In Vitro Evaluation, QSAR, and Molecular Docking Studies” (International Journal of Molecular Sciences, 2025)
“And” between values parts separate entries of the source, which are not always exact repeats. Identical values can stand only once. Counter-ions that a name gives are not always drawn. Each block holds one compound with its values, some of them ahead of it. Residues, ends and D or L forms follow the SMILES beside them.

How the values were obtained:
human DPP III = biological target: T1, human DPP III (Homo sapiens, UniProt Q9NY33); assay: hDPP III enzyme activity assay (% inhibition and IC50), substrate Arg-Arg-2-naphthylamide; type: biochemical; conditions: for IC50: at least seven concentrations, nonlinear regression, three replicates; for log % inh. exp.: logarithm of % inhibition at 30 μmol L^–1; for inhibition at 30 µM: pH 7.4, 30 μmol L^–1 compound, recombinant hDPP III 0.75 nM, Arg-Arg-2-naphthylamide 40 μM, pH 7.4, 37 °C, average of three determinations ± SD
T1 construct: C-terminally truncated human DPP III was expressed and purified as described previously; His-tag (TEV-cleavable) (C, cleaved yes); made in house; host or cells: E. coli BL21-CodonPlus (DE3)-RIL
T1 sequence (Q9NY33 1-726 limits assumed): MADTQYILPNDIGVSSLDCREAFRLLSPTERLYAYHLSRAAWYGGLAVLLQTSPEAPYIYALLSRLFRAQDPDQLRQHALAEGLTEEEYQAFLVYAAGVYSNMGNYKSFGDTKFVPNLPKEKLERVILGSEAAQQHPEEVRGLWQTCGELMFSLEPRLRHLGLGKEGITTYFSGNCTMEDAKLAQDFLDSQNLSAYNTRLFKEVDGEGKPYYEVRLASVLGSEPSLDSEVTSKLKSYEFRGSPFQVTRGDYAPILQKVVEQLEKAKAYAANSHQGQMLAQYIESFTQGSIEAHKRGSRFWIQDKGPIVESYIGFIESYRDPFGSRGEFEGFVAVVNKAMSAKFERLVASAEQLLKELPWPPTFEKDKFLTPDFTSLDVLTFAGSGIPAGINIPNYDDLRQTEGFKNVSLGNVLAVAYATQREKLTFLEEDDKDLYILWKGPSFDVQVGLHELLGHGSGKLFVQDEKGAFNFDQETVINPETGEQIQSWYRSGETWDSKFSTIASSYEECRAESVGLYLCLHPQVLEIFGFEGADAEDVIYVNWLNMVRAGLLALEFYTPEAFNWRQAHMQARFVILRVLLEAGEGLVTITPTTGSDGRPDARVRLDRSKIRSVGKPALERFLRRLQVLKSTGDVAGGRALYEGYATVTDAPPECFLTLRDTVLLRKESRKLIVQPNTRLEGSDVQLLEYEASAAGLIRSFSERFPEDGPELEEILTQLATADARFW
Method: C-terminally truncated human DPP III was expressed and purified as described previously. In brief, C-terminal HIS-tagged recombinant human DPP III was expressed in E. coli BL21-CodonPlus (DE3)-RIL cells, Agilent (Santa Clara, CA, USA). Overexpression was induced by 0.25 mM isopropyl-b-D-1-thiogalactopyranoside (IPTG, Fermentas), and the cells were grown for 20 h at 18 °C and 130 rpm. Obtained bacterial cells were lysed by a combination of lysozyme lysis and sonication, then treated with DNase I and centrifuged at 4000× g for 15 min to precipitate the cell debris. The lysate was purified by affinity chromatography on a Ni-NTA column (5 mL prepacked His-trap FF) GE Healthcare (Chicago, IL, USA) using a buffer system with 50 mM Tris- HCl, pH = 8.0, 300 mM NaCl, and increasing imidazole concentrations: 10 mM for lysis, 20 mM for wash, and 300 mM for elution buffer. All hDPP III active fractions were pooled and incubated with TEV protease to remove the HIS-tag. Human DPP III was recovered using flow-through affinity chromatography (TEV protease is His-tagged), and additionally purified on a 16/60 Superdex-200 gel-filtration column GE Healthcare (Chicago, IL, USA). Fractions with hDPP III were desalted on PD-10 columns GE Healthcare (Chicago, IL, USA). Purified protein in 20 mM Tris-HCl buffer pH = 7.4 was stored at -80 °C until use. Recombinant hDPP III (0.75 nM) was preincubated with benzimidazole derivatives (30 μM) first for 10 min at 25 °C and then for 5 min at 37 °C in 50 mM Tris-HCl buffer, pH 7.4. The enzymatic reaction was started with Arg-[…]-naphthylamide (40 μM) as a substrate, and after the 15 min incubation at 37 °C in a water bath, the reaction was stopped, and the absorbance was measured using the spectrophotometric method described by Abramić et al.. All benzimidazole derivatives were prepared daily in dimethyl sulfoxide, and the resulting stock solutions (4 mM) were transparent, without turbidity or solid residue. […] Before the enzyme assay, stock solutions were diluted with 50 mM Tris-HCl buffer, pH 7.4. […] The percentage of enzyme inhibition under at least seven different concentration gradients was imported into GraphPad Prism 10.4.1 software to calculate IC50 values of the compounds using nonlinear regression analysis from the mean inhibitory value of three replicates. The relative occupancy of inhibition for compounds with the same substituent at position 6 of the benzimidazole core was defined as the sum of their % inh., expressed relative to their maximum achievable inhibition, which was set at 100.

HCT116 = test system: HCT116; set-up: method as in doi:10.5562/cca3531; conditions: cited from earlier work
H460 = test system: H460; set-up: method as in doi:10.5562/cca3531; conditions: cited from earlier work
MCF-7 = test system: MCF-7; set-up: method as in doi:10.5562/cca3531; conditions: cited from earlier work
hDPP III = biological target: hDPP III; set-up: method as in PMID 18163885; conditions: read-out: inhibition constant (Ki); cited from earlier work

Compound: N=C(N)c1ccc2nc(-c3ccc(-c4cccs4)s3)[nH]c2c1 [a4]
IC50 (human DPP III): < 20 µM and 8.34 µM
log % inh. exp. (human DPP III): 2.00
inhibition at 30 µM (human DPP III): ≥ 90%

Compound: c1ccc2c(c1)cc(-c1nc3cc(C4=NCCCN4)ccc3[nH]1)c1ccccc12 [c8]
log % inh. exp. (human DPP III): 1.71
inhibition at 30 µM (human DPP III): 51.7 ± 0.2%

Compound: CCN(CC)c1ccc(-c2nc3ccc(C(=N)N)cc3[nH]2)c(O)c1 [a2, 5(6)-amidino-2-[4-(N,N-diethylamino)-2-hydroxyphenyl]benzimidazole hydrochloride]
IC50 (human DPP III): < 20 µM and 8.44 µM
log % inh. exp. (human DPP III): 2.00
inhibition at 30 µM (human DPP III): ≥ 90%

Compound: c1ccc2c(c1)cc(-c1nc3cc(C4=NCCN4)ccc3[nH]1)c1ccccc12 [b2, 5(6)-(2-imidazolinyl)-2-(phenanthren-9-yl)-1H-benzo[d]imidazole]
IC50 (human DPP III): < 20 µM and 11.1 µM
log % inh. exp. (human DPP III): 2.00
inhibition at 30 µM (human DPP III): ≥ 90%

Compound: N=C(N)c1ccc2nc(-c3ccc(C(F)(F)F)cc3)[nH]c2c1 [a6]
IC50 (human DPP III): < 20 µM and 9.83 µM
log % inh. exp. (human DPP III): 1.99
inhibition at 30 µM (human DPP III): ≥ 90%
antiproliferative activity (HCT116): displayed antiproliferative activity
antiproliferative activity (H460): displayed antiproliferative activity
antiproliferative activity (MCF-7): displayed antiproliferative activity

Compound: N[C@@H](Cc1ccc(O)cc1)C(=O)N[C@@H](Cc1ccccc1)C(=O)NO [Tyr-Phe-NHOH] (HELM PEPTIDE1{Y.F.[ON[*:1]]}$$$$V2.0)
Ki (hDPP III): 0.15 ± 0.04 µM

Second part, led by results:

IC50 (human DPP III): < 20 µM and 8.18 µM
log % inh. exp. (human DPP III): 2.00
inhibition at 30 µM (human DPP III): ≥ 90%
Compound: FC(F)(F)c1ccc(-c2nc3ccc(C4=NCCN4)cc3[nH]2)cc1 [b6]
antiproliferative activity (HCT116): displayed antiproliferative activity
antiproliferative activity (H460): displayed antiproliferative activity
antiproliferative activity (MCF-7): displayed antiproliferative activity

IC50 (human DPP III): < 20 µM and 1.03 µM
log % inh. exp. (human DPP III): 2.00
inhibition at 30 µM (human DPP III): ≥ 90%
Compound: Oc1ccc(-c2nc3ccc(C4=NCCN4)cc3[nH]2)c(O)c1O [b13, 5(6)-(4,5-Dihydro-1H-imidazol-3-ium-2-yl)-2-(2,3,4-trihydroxyphenyl)benzimidazole chloride]

IC50 (human DPP III): < 20 µM and 4.98 µM
log % inh. exp. (human DPP III): 2.00
inhibition at 30 µM (human DPP III): ≥ 90%
Compound: c1csc(-c2ccc(-c3nc4ccc(C5=NCCN5)cc4[nH]3)s2)c1 [b4]
